Experiment [1] relates to M. smegmatis 4x03863 Mutant 1. The experiment can be described thus: microbe, parasite or virus in culture. It counts as cell-based. The conditions noted are these: Mycolicibacterium smegmatis, read-out: MIC100.
Experiment [2] has as its system M. smegmatis 4x03863 Mutant 4. The experiment can be described thus: microbe, parasite or virus in culture. It counts as cell-based. The settings on record: Mycolicibacterium smegmatis, read-out: MIC100.
The subject of experiment [3] is M. smegmatis 4x03863 Mutant 3. Nature of the experiment: microbe, parasite or virus in culture. It counts as cell-based. The conditions noted are these: Mycolicibacterium smegmatis, read-out: MIC100.
Experiment [4] deals with M. smegmatis ATCC 19420. The experiment can be described thus: Antibacterial testing, broth microdilution (CLSI). It counts as cell-based, Mycobacterium smegmatis. The conditions noted are these: Mycolicibacterium smegmatis. Here is the method:
(§1) Antibacterial testing was performed for Acinetobacter baumannii NCTC 13420, E. coli ATCC 25922, M. smegmatis ATCC 19420, Pseudomonas aeruginosa ATCC 27853 and Staphylococcus aureus ATCC 29213, using the broth microdilution method under CLSI guidelines[19] (Table 1). The agar dilution method was additionally performed for M. smegmatis under EUCAST guidelines.[20]

In experiment [5] the target is T1, M. tuberculosis gyrase (Mycobacterium tuberculosis, UniProt P9WG45).
T1 construct: Both the GyrB and GyrBA constructs were altered by deleting the N-terminal 40 amino acids; made in house
Nature of the experiment: ATP-independent relaxation of supercoiled DNA. It counts as biochemical. The settings on record: absence of ATP. An excerpt:
In the presence of FQs, gyrase can cleave DNA due to the cleavage complex being stabilized.[35]

Experiment [6] relates to E. coli 2x03863 Mutant. Nature of the experiment: microbe, parasite or virus in culture. It counts as cell-based. The conditions noted are these: Escherichia coli, read-out: MIC100.
In experiment [7] the target is T1, M. tuberculosis gyrase. Nature of the experiment: biochemical. The conditions noted are these: 74 nM of each gyrase subunit, 1% DMSO; read-out: IC50 (apparent), gyrase supercoiling.
The target in experiment [8] is T1, M. tuberculosis gyrase. The experiment can be described thus: DNA cleavage assay (cleavage complex stabilisation). It counts as biochemical. The settings on record: 20 nM gyrase, 1% DMSO. Here is the method: Figure S1. […] DNA cleavage assays were carried out as previously described;^11 these are essentially the same as supercoiling assays, except that the reactions are terminated by the addition of SDS and proteinase K, and incubated for a further 30 mins at 37°C. Samples contained 20 nM gyrase and 1% DMSO, except where indicated, and Moxifloxacin, Redx03863 or Redx04739, as indicated. Agarose gels (1%) were run in the presence of 0.5 µg/mL ethidium bromide. – indicates no gyrase; + and all other lanes contain gyrase. nc = nicked circular DNA; l = linear; cc = closed circular.

Experiment [9] deals with T2, M. tuberculosis GyrBA fusion protein (Mycobacterium tuberculosis, UniProt P9WG45+P9WG47).
T2 construct: Both the GyrB and GyrBA constructs were altered by deleting the N-terminal 40 amino acids; made in house; host or cells: E. coli Rosetta 2 (pLysS)
The experiment can be described thus: biochemical.

The subject of experiment [10] is M. smegmatis 4x03863 Mutant 2 (GyrB Gly83Ser).
The test system of experiment [11] is S. aureus ATCC 29213. The experiment can be described thus: Antibacterial testing, broth microdilution (CLSI). It counts as cell-based. The settings on record: Staphylococcus aureus, ATCC29213. Here is the method:
as §1

Experiment [12] concerns E. coli ATCC 25922. Nature of the experiment: Antibacterial testing, broth microdilution (CLSI). It counts as cell-based. The settings on record: Escherichia coli. Here is the method:
as §1

Experiment [13] relates to A. baumannii NCTC 13420. The experiment can be described thus: Antibacterial testing, broth microdilution (CLSI). It counts as cell-based. The conditions noted are these: Acinetobacter baumannii, NCTC13420. Here is the method:
as §1

Experiment [14] concerns P. aeruginosa ATCC 27853. The experiment can be described thus: Antibacterial testing, broth microdilution (CLSI). The conditions noted are these: Pseudomonas aeruginosa, ATCC27853. It counts as cell-based. Here is the method:
as §1

The mark [15] stands for this setting: M. smegmatis ATCC19420 (WT), read-out: MIC100.
The mark [16] stands for this setting: GyrBA fusion protein at 200 nM, linear pBR322 DNA 20 μg/mL, read-out: apparent IC50, gyrase ATPase activity.
The mark [17] stands for this setting: gyrase 200 nM, IC50 lower than this not determinable, read-out: IC50, gyrase ATPase reaction.
[18] abbreviates: ATCC25922, E. coli ATCC 25922, broth microdilution, read-out: MIC.
The mark [19] stands for this setting: E. coli ATCC25922 (WT), read-out: MIC100.
Where [20] appears, read: ATCC19420, M. smegmatis ATCC 19420, broth microdilution, read-out: MIC.

The structures appear in SMILES notation. Converted amounts (≈) assume the structure as drawn. Read-outs that look alike come from different tables or passages of the source.

As to `NNC(=O)c1ccncc1` [Isoniazid], the MIC in [1] was 32 µg/mL (≈ 233 µM); in experiment [2], 32 µg/mL (≈ 233 µM); in experiment [3], 16 µg/mL (≈ 117 µM); in [4] (setting [15]), 32 µg/mL (≈ 233 µM).
For `CNc1cc(F)cc2c1[nH]c1nc(CNC(=O)c3cnco3)nc(N3CCC(N)C3)c12` (centres unmarked) [Redx04739], the “inhibition of relaxation of supercoiled DNA” value in experiment [5] was “did not inhibit”. Further, the MIC is greater than 64 µg/mL in experiment [6]; 4 µg/mL (≈ 9.42 µM) in [1]; 2 µg/mL (≈ 4.71 µM) in [2]; 8 µg/mL (≈ 18.8 µM) in experiment [11]; 8 µg/mL (≈ 18.8 µM) in [12] (setting [18]); 8 µg/mL (≈ 18.8 µM) in experiment [12] (setting [19]). Also, the MIC in experiment [13] came to 64 µg/mL (≈ 151 µM); in experiment [14] it was 32 µg/mL (≈ 75.4 µM); in experiment [3], 4 µg/mL (≈ 9.42 µM); in experiment [4] (setting [20]), 0.25 µg/mL (≈ 0.589 µM); in experiment [4] (setting [15]), 0.5 µg/mL (≈ 1.18 µM). Moreover, the IC50 is 30 nM in experiment [7], 210 nM in [9] (setting [16]) and roughly 200 nM in [9] (setting [17]). The “stabilization of the cleavage complex” value in experiment [8] is reported as “did not stabilize the cleavage complex”. Further, the “increase in resistance of mutant strain” value in [10] stood at 8 fold.
For the compound `CO[C@@H]1[C@@H](OC(N)=O)[C@@H](O)[C@H](Oc2ccc3c(O)c(NC(=O)c4ccc(O)c(CC=C(C)C)c4)c(=O)oc3c2C)OC1(C)C` [novobiocin, reference compound], the MIC in experiment [6] was 0.5 µg/mL (≈ 0.816 µM); in [1] it was 4 µg/mL (≈ 6.53 µM); in experiment [2], 4 µg/mL (≈ 6.53 µM); in experiment [12] (setting [19]), 64 µg/mL (≈ 104 µM); in experiment [3], 8 µg/mL (≈ 13.1 µM); in [4] (setting [15]), 2 µg/mL (≈ 3.26 µM).
Take `CNc1cc(F)cc2c1[nH]c1nc(Oc3cnc(C)nc3)nc(N3C[C@@H]4[C@@H](N)[C@@H]4C3)c12` [Redx03863]: in experiment [5], the “inhibition of relaxation of supercoiled DNA” value is listed as “did not inhibit”. Moreover, the MIC in experiment [6] was found to be 32 µg/mL (≈ 76.1 µM); in [1], 0.25 µg/mL (≈ 0.595 µM); in experiment [2] it was 0.25 µg/mL (≈ 0.595 µM); in [11], 0.125 µg/mL (≈ 0.297 µM); in [12] (setting [18]), 0.016 µg/mL (≈ 0.0381 µM); in [12] (setting [19]), 0.016 µg/mL (≈ 0.0381 µM). The MIC in experiment [13] is 0.031 µg/mL (≈ 0.0737 µM); in experiment [14] it was 4 µg/mL (≈ 9.51 µM); in experiment [3] it was 0.125 µg/mL (≈ 0.297 µM); in experiment [4] (setting [20]), 0.016 µg/mL (≈ 0.0381 µM); in [4] (setting [15]) it was 0.016 µg/mL (≈ 0.0381 µM). In addition, the figures for the IC50 in experiment [7], in experiment [9] (setting [16]) and in experiment [9] (setting [17]) were 9 nM, 170 nM and roughly 200 nM, respectively. Besides, the “stabilization of the cleavage complex” value in experiment [8] is recorded as “did not stabilize the cleavage complex”. Moreover, in experiment [10], the “increase in resistance of mutant strain” value was determined as 16 fold.
With `COc1c(N2C[C@@H]3CCCN[C@@H]3C2)c(F)cc2c(=O)c(C(=O)O)cn(C3CC3)c12` [Moxifloxacin, reference compound], the MIC in [6] is 0.016 µg/mL (≈ 0.0399 µM); in [1], less than 0.125 µg/mL; in [2], less than 0.125 µg/mL; in [12] (setting [19]), 0.016 µg/mL (≈ 0.0399 µM); in experiment [3] it was less than 0.125 µg/mL; in experiment [4] (setting [15]), 0.125 µg/mL (≈ 0.311 µM).

Source of the values: publication PMC7556816, “Structural and mechanistic analysis of ATPase inhibitors targeting mycobacterial DNA gyrase” (Journal of Antimicrobial Chemotherapy, 2020).
